# Results from a melting point compilation (Tetko et al.; mined from patent text by program, amines drawn as free bases though some values may be those of a salt).
row,Compound,melting point [°C]
1,Cn1cnc2c1c(=O)n(CCCCCCO)c(=O)n2C,98 to 100
2,C=CCn1c(Nc2cc(C(F)(F)F)ccc2C(F)(F)F)nc(C(F)(F)F)cc1=O,116 to 118
3,COc1cc(C#N)cc(-c2ccc3c(c2)C(C)(C)OC(=O)N3)c1,254 to 255
4,Cc1ccccc1C1c2cc(Cl)ccc2OC(=O)C1C(=O)N(C)Cc1cc(C(F)(F)F)cc(C(F)(F)F)c1 (stereo unspecified),148 to 149
5,Cc1ccc2c(Cl)cc(Cl)c(OCC#N)c2n1,157 to 158
6,CCCCCCCCCCCCCCCCNC(=O)c1ccc(-n2oc(C(C)(C)C)c(COc3ccc(N)cc3)c2=O)c([N+](=O)[O-])c1,220
7,O=C(O)CCC(=NOCc1ccc(OCc2ccccc2)cc1)c1ccccc1,86 to 87
8,CCN1C(=O)C(=C2Oc3ccccc3N2CC)SC1=S,165 to 166
9,CC#CCOc1ccc(SC(C(=O)NO)c2ccc(Br)cc2)cc1 (stereo unspecified),153
10,CCOC1(OCC)OC(C)=C(C(=O)Nc2ccc(Cl)cc2)[C@@H](NC(C)=O)[C@@H]1C (relative stereo),199 to 201
11,CC(=O)Nc1ccc(CC(=O)N[C@H]2C[C@H](C(=O)O)Nc3cc(Cl)cc(Cl)c32)cc1 (relative stereo),279 to 281
12,CC(C)(c1ccccc1)C(Sc1ccc(Cl)cc1)n1ccnc1 (stereo unspecified),77 to 79
13,O=C(NCc1ccc(Cl)cc1)c1cn(CCN2CCOCC2)c2ccc(C=CCO)cc2c1=O,146 to 148
14,ClCc1cn2ccccc2n1,93 to 94
15,COc1ccc(C2=NOC3(C2)C(=O)CN(C)C3=O)cc1OC1CCCC1 (stereo unspecified),169 to 170
16,Cc1cccc(-c2nc3cccnn3c2-c2ccnc(NC(=O)c3cccc(F)c3)c2)c1,204 to 205
17,O=C(O)CCc1oc(/C=C/c2ccccc2)nc1-c1ccccc1,138 to 139
18,O=C(Nc1ccc(C2=NOC(c3cc(Cl)cc(Cl)c3)(C(F)(F)F)C2)cc1)C(F)(F)F (stereo unspecified),45 to 52
19,CCCc1nc(N)nc(N)c1N1CCNCC1,175 to 176
20,Cc1cn(Cc2ccccc2)c(=O)n(CCCCl)c1=O,48 to 50
21,Fc1ccc(CNc2nc(OCC(F)(F)F)nc(Oc3cccc(C(F)(F)F)c3)n2)cc1,107 to 109
22,Nc1c(SC(F)(F)F)ncn1-c1c(Cl)cc(C(F)(F)F)cc1Cl,134
23,Cc1cc(-n2ccnc2)c2cccc(OCc3c(Cl)ccc(S(=O)(=O)N4CCC[C@H]4C(=O)NCC4CCN(CCCC(=O)O)CC4)c3Cl)c2n1,178

row,Compound,melting point [°C]
1,COc1ccc(O)c(C2(CO)C(=O)N(Cc3ccc(C(F)(F)F)o3)c3ccc(F)cc32)n1 (stereo unspecified),110 to 113
2,COCOc1ccc(OC)c(F)c1C(=O)c1ccc(C(=O)N[C@@H]2CCCN(C(=O)OC(C)(C)C)C[C@H]2NC(=O)c2ccncc2)cc1,106
3,NP(N)(=O)NCCCBr,60 to 65
4,CCOC(=O)c1ccc(-c2cc(-c3ccc4c(c3)C(C)(C)CCC4(C)C)ccc2-c2ccccc2)cc1,233 to 235
5,O=C(O)c1ccc(N(CCn2ccnc2)c2ccc(F)cc2)cc1-c1ccc(F)cc1,195 to 200
6,COc1cccc(-n2nc(C(=O)O)c3csc(N)c3c2=O)c1,227 to 229
7,CCn1c2c(c3ccccc31)=CC(=C1c3ccccc3-c3ccccc31)CC=2,172
8,CCCOc1cc(CCCO)n(Cc2ccc(F)cc2F)n1,66 to 67
9,Oc1ccc(CNc2n[nH]c3ncnc(Nc4cccc(Cl)c4)c23)cc1Cl,220
10,CCOc1cc2c(cc1O)C(=O)CC(C)(C)O2,129 to 130
11,Cc1ccc(C(=S)NN)cc1,140 to 142
12,O=C(O)COc1c(-c2cccc(Cl)c2)cc(C(=O)NCCCCCCc2ccccc2)cc1-c1cccc(Cl)c1,178 to 181
13,CN1C(=O)CN(C(N)=O)C(c2ccccc2)c2cc(Cl)ccc21 (stereo unspecified),214 to 217
14,COCCc1nc2c(N)nc3ccccc3c2n1CCCNC(=S)NC1CCCCC1,199 to 200
15,CNn1c(C)nn(C(=O)NC(C)(C)CCc2ccccc2)c1=O,102
16,COc1ccc(N2CCN(c3c(C)c(C)c4c(c3C)CC(C)(C)O4)CC2)c(OC)c1,154 to 156
17,COc1ccc(Cl)cc1C(=O)NCCc1ccc(-c2ccc(OC(C)C(=O)O)cc2)cc1 (stereo unspecified),145
18,CS(=O)c1ccc(-c2coc3ccc(-c4nnc(SCc5cccc(F)c5)o4)cc23)cc1 (stereo unspecified),135 to 136
19,O=C(Cn1ccnc1)C12CC3CC(CC(C3)C1)C2,130
20,O=C(NCCOCCO)C12CC3CC(CC(C3)C1)C2,72 to 73
21,CN1CCC(=C2c3ccccc3Sc3ccc(S(=O)(=O)C(F)(F)F)cc32)CC1,125 to 128
22,C=Cc1ccc([C@@H](C)N=Cc2cccc(C)n2)cc1,25
23,O=[N+]([O-])c1ccc2c(c1)C=Cc1ccc(Br)cc1S2,190 to 192

# Results, then the molecule that gave them:
row,melting point [°C],Compound
1,255 to 258,O=C(O)c1cc([N+](=O)[O-])ccc1-c1ccc([N+](=O)[O-])cc1C(=O)O
2,170,O=c1[nH]c(-c2ccccc2F)nc2c1CCCC2
3,147 to 158,CN1C(=O)NC(=O)C1=Cc1cc(OCCCS(=O)(=O)c2ccccc2)ccc1[N+](=O)[O-]
4,212 to 214,CCOC(=O)NNc1cc(-c2ccc(OC)cc2)c(-c2ccc(OC)cc2)nn1
5,131 to 132,C[C@@H](N1CCN(c2ccc(OCC(F)(F)F)cc2)C1=O)[C@@]1(c2ccc(F)cc2F)CO1
6,208 to 209,CSc1nc2c(cnn2CC(O)c2ccccc2)c(=O)[nH]1 (stereo unspecified)
7,141 to 142,COC(=O)c1c(Br)c(Cl)cc2nn(C)cc12
8,95 to 97,COc1ccc(Cc2nc3cccc(CCCO)c3o2)cc1OC
9,134 to 135,CCC(C(=O)O)N(C(=O)c1cn(-c2cc(C(F)(F)F)ccc2Cl)nc1C)c1ccc(OCC(C)(C)C)c(C#N)c1 (stereo unspecified)
10,119 to 120,C=Cc1c(C(C)C)nc(C(C)C)c(CO)c1-c1ccc(F)cc1
11,114 to 115,O=S(=O)(NCC1CCC(NCC2CCc3ccccc3C2)CC1)c1ccc2ccccc2c1 (stereo unspecified)
12,96.5 to 97.5,N#CCc1nc(C(=O)c2ccccc2)no1
13,138,COc1ccc2c(c1)CN(C(=O)OCc1ccccc1)CC(=O)N2
14,154 to 156,O=C1NCCN1c1ccccc1
15,207 to 208,Cc1c(S(=O)(=O)Nc2ccc(-c3ncco3)cc2S(C)(=O)=O)sc2ccc(F)cc12
16,104 to 106,C#CCOc1ccc2cnn(C[C@H](C)NC(=O)OCc3ccccc3)c2c1
17,264 to 265,COc1ccc(-c2nc(-c3ccc(F)cc3)c(-c3ccncc3)[nH]2)cc1
18,83 to 84,OCc1csc(N2CCSCC2)n1
19,150 to 151,Cc1cc2c(-c3ccccc3)c(COS(C)(=O)=O)n(C)c(=O)c2cc1C
20,164 to 165,COc1ccc(C(=O)c2c(N)sc3c2CCN(Cc2ccccc2)C3)cc1
21,> 275,COC1CC(N)(C(=O)O)C2C(C(=O)O)C12 (stereo unspecified)
22,241 to 243,CCCCOc1c(CN2C(=O)c3ccccc3C2=O)n(CCNC(=O)OC)c(=O)c2cc(Cl)c(Cl)cc12
23,242 to 244,CCc1cn(C2CC(O)C(CNC(=O)c3ccc4ccccc4c3)O2)c(=O)[nH]c1=O (stereo unspecified)
24,101 to 102,CCOC(=O)Cc1cccc(C(=O)c2ccc(Cl)cc2)c1N
25,46 to 48,COC(=O)CCc1cc(Cl)ccc1C(=O)CCCNC(C)=O

row,melting point [°C],Compound
1,175 to 178,COc1c(C#C[Si](C)(C)C)cc(-n2ccc(=O)[nH]c2=O)cc1-c1ccc2cc(NS(C)(=O)=O)ccc2c1
2,171 to 175,COc1ccc(C(=O)C2CCCCC2C(=O)O)cc1OC (stereo unspecified)
3,135 to 137,C=CCC1C(=O)N(c2ccccc2)N(c2ccccc2)C1=O
4,249 to 254,CC(=O)NNc1c(C)cnc2c(NC(=O)c3c(Cl)cccc3Cl)cccc12
5,284 to 290,CCOC(=O)c1c(-c2ccc(O)cc2)c(C#N)c(=O)n2ccccc12
6,183 to 185,O=C(O)c1ccc(C(O)(C(F)(F)F)C(F)(F)F)cc1C(=O)O
7,93 to 94,O=C1C(Cl)C(CCl)CN1c1cccc(Cl)c1 (stereo unspecified)
8,165,CC(=O)OC1CSC(Oc2ccc(-c3cnoc3C)nc2)C(OC(C)=O)C1OC(C)=O (stereo unspecified)
9,172 to 175,Cc1ccc(C(=O)n2c(C)c(C(C)C(=O)O)c3cc4c(cc32)OCO4)cc1 (stereo unspecified)
10,296,COC(=O)c1cc(O)c2cc3c(O)cc(C(=O)OC)nc3c(C)c2n1
11,204,Cc1c(O)c(C)c(Cc2cc(C(C)(C)C)c(O)c(C(C)(C)C)c2)c(C)c1Cc1cc(C(C)(C)C)c(O)c(C(C)(C)C)c1
12,174 to 175,O=C(c1ccccc1)c1cnn2cccnc12
13,170 to 172,CC(C)(C)C1NN(c2ccc(N)cc2Br)C(=O)O1 (stereo unspecified)
14,169 to 170,Cc1c(CNCC(C)(C)C)n(C)c2ccc(NC(=O)c3ccc(OCC4CC4)cc3)cc12
15,225 to 227,COc1nc2cc(Cl)c(Cl)c(NS(C)(=O)=O)c2nc1OC
16,183 to 184,CCN1C(=Cc2ccc([N+](=O)[O-])cc2C#N)C=Cc2ccccc21
17,137,Cc1cccc(C(=O)Nc2ccc(N3CCN(Cc4cccc(C#N)c4)CC3)cc2)c1-c1ccc(C(C)C)cc1
18,81,COc1cccc(Cc2oc3ccc(OC)cc3c2CC#N)c1
19,161 to 162,COc1ccc([C@H]2Cc3c(cccc3C(F)(F)F)NC(=O)[C@H]2OC(=O)c2ccccc2C(=O)O)cc1 (relative stereo)
20,155 to 157,COc1nc(N)nc2c1ncn2C1OC(CO)C(OC(=O)c2ccccc2)C1O (stereo unspecified)
21,233 to 234,S=c1[nH]ccn1C1CCc2ccccc2C1 (stereo unspecified)
22,148 to 150,COc1cc(OC)c(-c2cc3ccccc3n2C)cc1C=CC(=O)c1ccc(S(N)(=O)=O)cc1
23,211 to 213,O=C(Nc1cccc(-c2ccnc3c(C(=O)c4cccs4)cnn23)c1)c1ccccc1
24,258 to 259,CCCn1c(=O)c2[nH]c(/C=C/c3ccco3)nc2n(CCC)c1=O
25,240 to 242,COc1cc(Cc2cnc(NC=O)nc2N)cc(OC)c1OC
